Test results reported in paper PMC10881971, “Hepa-ToxMOA: a pathway-screening method for evaluating cellular stress and hepatic metabolic-dependent toxicity of natural products” (Scientific Reports, 2024).
Counter-ions that a name gives are not always drawn. Like-named read-outs stand apart in the source and are kept apart here.

Columns and labels:
[1] = tested on: AP1, P53, Nrf2, and NF-κB
CYP3A4 = conditions: cited from earlier work
CYP3A5 = tested on: CYP3A5; parameters: method as in doi:10.1016/j.ccr.2020.213600; conditions: cited from earlier work
[2] = regardless of metabolic activation (S9- and S9+), 24 h
[3] = under metabolic activation (S9+, 1% rat liver S9), 24 h
[4] = without metabolic activation (S9-), 24 h

**Q.** For `CCc1c2c(nc3ccc(O)cc13)-c1cc3c(c(=O)n1C2)COC(=O)[C@]3(O)CC` [7-Ethyl-10-Hydroxycamptothecin], which “GFP intensity, AP1 cell line” value (AP1) is on record?
**A.** increased

**Q.** Which “GFP expression, NF-κB cell line” value (NF-κB; [2]) does the source give for `CC[C@@]1(O)C(=O)OCc2c1cc1n(c2=O)Cc2cc3c(OC)cccc3nc2-1` [9-Methoxycamptothecin] here?
**A.** increased GFP expression

**Q.** For `CC[C@@]1(O)C(=O)OCc2c1cc1n(c2=O)Cc2cc3cc(O)ccc3nc2-1` [10-Hydroxycamptothecin], which “GFP intensity, AP1 cell line” value (AP1; [2]) is on record?
**A.** increased

**Q.** What about the “Toxic (natural products exceeding Score 3, Venn diagram list Fig. 3c)” value (from here on “Toxic”) [1] of the same compound?
**A.** Common

**Q.** What about the “sum of activity scores compared between metabolic activation and non-metabolic conditions” value [1] of the same compound?
**A.** consistently active regardless of metabolic activation

**Q.** What does the source list for `C[C@]12CC[C@H](O)C[C@H]1CC[C@@H]1[C@@H]2[C@H](O)C(=O)[C@]2(C)[C@@H](c3ccc(=O)oc3)CC[C@]12O` [Arenobufagin]?
**A.** GFP expression, AP1 cell line (AP1; [3]): did not respond; GFP expression, AP1 cell line (AP1; [4]): specifically induced GFP expression; Toxic (natural products exceeding Score 3, Venn diagram list Fig. 3c) [1]: S9- only; sum of activity scores compared between metabolic activation and non-metabolic conditions [1]: more active without metabolic activation

**Q.** Which “GFP expression, AP1 cell line” value (AP1; [3]) does the source give for `C[C@]12CC[C@H](O)C[C@H]1CC[C@@H]1[C@@H]2CC[C@]2(C)[C@@H](c3ccc(=O)oc3)CC[C@]12O` [Bufalin] here?
**A.** did not respond

**Q.** And the “GFP expression, AP1 cell line” value (AP1; [4])?
**A.** specifically induced GFP expression

**Q.** What about the “sum of activity scores compared between metabolic activation and non-metabolic conditions” value [1] of the same compound?
**A.** more active under metabolic activation

**Q.** What about the “Toxic” value ([1]; human) of the same compound?
**A.** S9+ only

**Q.** Which “GFP expression, AP1 cell line” value (AP1; [3]) does the source give for `C[C@]12CC[C@H](O)C[C@H]1CC[C@@H]1[C@@H]2CC[C@]2(C)[C@@H](c3ccc(=O)oc3)C[C@H]3O[C@]132` [Bufogenin] here?
**A.** did not respond

**Q.** And the “GFP expression, AP1 cell line” value (AP1; [4])?
**A.** specifically induced GFP expression

**Q.** What about the “GFP expression, P53 cell line” value (P53) of the same compound?
**A.** increased

**Q.** And the “Toxic” value [1]?
**A.** Common

**Q.** And the “active (increased GFP intensity) for all Hepa-ToxMOA cell lines (Fig. 3d)” value [1]?
**A.** commonly active

**Q.** What about the “sum of activity scores compared between metabolic activation and non-metabolic conditions” value [1] of the same compound?
**A.** consistently active regardless of metabolic activation

**Q.** For `CC1=C(O)C(=O)C=C2C1=CC=C1[C@@]2(C)CC[C@@]2(C)[C@@H]3C[C@](C)(C(=O)O)CC[C@]3(C)CC[C@]12C` [Celastrol], which “sum of activity scores compared between metabolic activation and non-metabolic conditions” value [1] is on record?
**A.** more active under metabolic activation

**Q.** What about the “Toxic” value ([1]; human) of the same compound?
**A.** S9+ only

**Q.** For `CC(=O)O[C@H]1[C@H]2O[C@]23[C@@H]2CC[C@@H]4C[C@@H](O)CC[C@]4(C)[C@H]2CC[C@]3(C)[C@H]1c1ccc(=O)oc1` [Cinobufagin], which “substrate of CYP3A4” value (CYP3A4) is on record?
**A.** substrates

**Q.** What about the “GFP expression, P53 cell line” value (P53) of the same compound?
**A.** increased

**Q.** And the “Toxic” value [1]?
**A.** Common

**Q.** What about the “active (increased GFP intensity) for all Hepa-ToxMOA cell lines (Fig. 3d)” value [1] of the same compound?
**A.** commonly active

**Q.** And the “sum of activity scores compared between metabolic activation and non-metabolic conditions” value [1]?
**A.** consistently active regardless of metabolic activation

**Q.** What about the “substrate of CYP3A5” value (CYP3A5) of the same compound?
**A.** substrates

**Q.** For `CC(=O)O[C@H]1[C@H]2O[C@]23[C@@H]2CC[C@]4(O)C[C@@H](O)CC[C@]4(C)[C@H]2CC[C@]3(C)[C@H]1c1ccc(=O)oc1` [Cinobufotalin], which “sum of activity scores compared between metabolic activation and non-metabolic conditions” value [1] is on record?
**A.** more active without metabolic activation

**Q.** What about the “Toxic” value ([1]; human) of the same compound?
**A.** S9- only

**Q.** Which “sum of activity scores compared between metabolic activation and non-metabolic conditions” value [1] does the source give for `C[C@@]1(C(=O)O)CC[C@]2(C)CC[C@]3(C)C4=CC(=O)c5c(cc(O)c(O)c5C=O)[C@]4(C)CC[C@@]3(C)[C@@H]2C1` [Demethylzeylasteral] here?
**A.** did not show a response

**Q.** With `C[C@]12CC[C@H](O)C[C@H]1CC[C@@H]1[C@@H]2[C@H](O)C[C@]2(C)[C@@H](c3ccc(=O)oc3)CC[C@]12O` [Gamabufotalin] as the compound, how does the “GFP expression, P53 cell line” value (P53) read?
**A.** increased

**Q.** And the “sum of activity scores compared between metabolic activation and non-metabolic conditions” value [1]?
**A.** more active without metabolic activation

**Q.** What about the “Toxic” value ([1]; human) of the same compound?
**A.** S9- only

**Q.** What does the source list for `CC(C)=CCc1c(O)cc2oc3cc(O)c(O)c(CCC(C)(C)O)c3c(=O)c2c1O` [Garcinone C]?
**A.** Toxic (natural products exceeding Score 3, Venn diagram list Fig. 3c) [1]: S9+ only; sum of activity scores compared between metabolic activation and non-metabolic conditions [1]: more active under metabolic activation

**Q.** Which “GFP intensity, AP1 cell line” value (AP1) does the source give for `CO[C@]1(CC[C@@H](C)CO[C@@H]2O[C@H](CO)[C@@H](O)[C@H](O)[C@H]2O)O[C@H]2C[C@H]3[C@@H]4CC=C5C[C@@H](O[C@@H]6O[C@H](CO)[C@@H](O[C@@H]7O[C@@H](C)[C@H](O)[C@@H](O)[C@H]7O)[C@H](O)[C@H]6O[C@@H]6O[C@@H](C)[C@H](O)[C@@H](O)[C@H]6O)CC[C@]5(C)[C@H]4CC[C@]3(C)[C@H]2[C@@H]1C` [Methyl protodioscin] here?
**A.** increased

**Q.** What does the source list for `COc1cc2c3c(c1OC)-c1ccccc1C[C@H]3NCC2` [N-nornuciferine]?
**A.** GFP expression, P53 cell line (P53): no change; increase of GFP expression, P53 cell line (P53): up to 1.5 fold; Toxic (natural products exceeding Score 3, Venn diagram list Fig. 3c) [1]: Common; active (increased GFP intensity) for all Hepa-ToxMOA cell lines (Fig. 3d) [1]: commonly active; sum of activity scores compared between metabolic activation and non-metabolic conditions [1]: consistently active regardless of metabolic activation; GFP expression, NF-κB cell line (NF-κB): increased GFP expression; GFP expression, Nrf2 cell line (Nrf2): induced GFP expression

**Q.** Which “sum of activity scores compared between metabolic activation and non-metabolic conditions” value [1] does the source give for `C[C@@H]1CC[C@@]2(OC1)O[C@H]1C[C@H]3[C@@H]4CC=C5C[C@@H](O)C[C@@H](O[C@@H]6O[C@H](C)[C@H](O)[C@H](O)[C@H]6O[C@@H]6O[C@@H](C)[C@H](O)[C@@H](O)[C@H]6O)[C@]5(C)[C@H]4CC[C@]3(C)[C@H]1[C@@H]2C` [Ophiopogonin B] here?
**A.** did not show a response

**Q.** For `CO[C@H]1C[C@H](O[C@H]2CC[C@]3(C)[C@H]4CC[C@]5(C)[C@@H](C6=CC(=O)OC6)CC[C@]5(O)[C@@H]4CC[C@]3(O)C2)O[C@H](C)[C@H]1O[C@@H]1O[C@H](CO)[C@@H](O)[C@H](O)[C@H]1O` [Periplocoside], which “GFP expression, AP1 cell line” value (AP1; [3]) is on record?
**A.** did not respond

**Q.** And the “GFP expression, AP1 cell line” value (AP1; [4])?
**A.** specifically induced GFP expression

**Q.** Which results are given for `COc1cc([C@@H]2c3cc4c(cc3[C@H](O)[C@H]3COC(=O)[C@@H]23)OCO4)cc(OC)c1OC` [Picropodophyllotoxin]?
**A.** GFP expression, AP1 cell line (AP1; [3]): did not respond; GFP expression, AP1 cell line (AP1; [4]): specifically induced GFP expression

**Q.** For `C[C@@H]1O[C@@H](O[C@H]2[C@H](OC(=O)[C@]34CCC(C)(C)C[C@H]3C3=CC[C@@H]5[C@@]6(C)C[C@H](O)[C@H](O[C@@H]7O[C@H](CO)[C@@H](O)[C@H](O[C@@H]8O[C@H](CO)[C@@H](O)[C@H](O)[C@H]8O)[C@H]7O)C(CO)(CO)[C@@H]6CC[C@@]5(C)[C@]3(C)C[C@H]4O)OC[C@H](O)[C@@H]2O)[C@H](O)[C@H](O)[C@H]1O[C@@H]1OC[C@@H](O)[C@H](O[C@@H]2OC[C@](O)(CO)[C@H]2O)[C@H]1O` [Platycodin D2], which “sum of activity scores compared between metabolic activation and non-metabolic conditions” value [1] is on record?
**A.** more active without metabolic activation

**Q.** What about the “Toxic” value ([1]; human) of the same compound?
**A.** S9- only

**Q.** What does the source list for `C[C@@H]1O[C@@H](O[C@H]2[C@H](OC(=O)[C@]34CCC(C)(C)C[C@H]3C3=CC[C@@H]5[C@@]6(C)C[C@H](O)[C@H](O[C@@H]7O[C@H](CO)[C@@H](O)[C@H](O)[C@H]7O)C(CO)(CO)[C@@H]6CC[C@@]5(C)[C@]3(C)C[C@H]4O)OC[C@H](O)[C@@H]2O)[C@H](O)[C@H](O)[C@H]1O[C@@H]1OC[C@@H](O)[C@H](O[C@@H]2OC[C@](O)(CO)[C@H]2O)[C@H]1O` [Platycodin D]?
**A.** sum of activity scores compared between metabolic activation and non-metabolic conditions [1]: more active under metabolic activation; Toxic (natural products exceeding Score 3, Venn diagram list Fig. 3c) ([1]; human): S9+ only

**Q.** With `COc1cc([C@@H]2c3cc4c(cc3[C@H](O)[C@H]3COC(=O)[C@H]23)OCO4)cc(OC)c1OC` [Podophyllotoxin, reference compound] as the compound, how does the “GFP expression, AP1 cell line” value (AP1; [3]) read?
**A.** did not respond

**Q.** What about the “GFP expression, AP1 cell line” value (AP1; [4]) of the same compound?
**A.** specifically induced GFP expression

**Q.** And the “Toxic” value [1]?
**A.** Common

**Q.** And the “sum of activity scores compared between metabolic activation and non-metabolic conditions” value [1]?
**A.** consistently active regardless of metabolic activation

**Q.** For `C[C@]12CC[C@H](O)C[C@@]1(O)CC[C@@H]1[C@@H]2CC[C@]2(C)[C@@H](c3ccc(=O)oc3)CC[C@]12O` [Telocinobufagin], which “sum of activity scores compared between metabolic activation and non-metabolic conditions” value [1] is on record?
**A.** more active without metabolic activation

**Q.** And the “Toxic” value ([1]; human)?
**A.** S9- only

**Q.** With `CC[C@]1(O)C[C@@H]2CN(CCc3c([nH]c4ccccc34)[C@@](C(=O)OC)(c3cc4c(cc3OC)N(C)[C@H]3[C@@](O)(C(=O)OC)[C@H](OC(C)=O)[C@]5(CC)C=CCN6CC[C@]43[C@@H]65)C2)C1` [Vinblastine sulfate, reference compound] as the compound, how does the “sum of activity scores compared between metabolic activation and non-metabolic conditions” value [1] read?
**A.** more active under metabolic activation

**Q.** And the “Toxic” value ([1]; human)?
**A.** S9+ only

**Q.** Which results are given for `CC[C@]1(O)C[C@H]2CN(CCc3c([nH]c4ccccc34)[C@@](C(=O)OC)(c3cc4c(cc3OC)N(C=O)[C@H]3[C@@](O)(C(=O)OC)[C@H](OC(C)=O)[C@]5(CC)C=CCN6CC[C@]43[C@@H]65)C2)C1` [Vincristine, reference compound]?
**A.** active (increased GFP intensity) for all Hepa-ToxMOA cell lines (Fig. 3d) [1]: commonly active; sum of activity scores compared between metabolic activation and non-metabolic conditions [1]: more active under metabolic activation; Toxic (natural products exceeding Score 3, Venn diagram list Fig. 3c) ([1]; human): S9+ only

**Q.** With `COc1c(O)cc2oc3cc(O)c(CC=C(C)C)c(O)c3c(=O)c2c1CC=C(C)C` [alpha-Mangostin] as the compound, how does the “Toxic” value [1] read?
**A.** S9+ only

**Q.** And the “sum of activity scores compared between metabolic activation and non-metabolic conditions” value [1]?
**A.** more active under metabolic activation

**Q.** With `O=C(C[C@@H]1NCCC[C@H]1O)Cn1cnc2ccccc2c1=O` [beta-dichroine, beta-febrifugine (beta-dichroine)] as the compound, how does the “sum of activity scores compared between metabolic activation and non-metabolic conditions” value [1] read?
**A.** did not show a response
